# Source: patent US11931424B2, “Combination MCL-1 inhibitors with anti-body drug conjugates” (Gilead Sciences, Inc., priority 2021, dated 2024)
# System: panel of breast cancer cell lines
# Assay: Compound A with targeted agents and chemotherapies, 72-hour in vitro proliferation assays
# Assay type: cell-based
# [1] = BT-20 cell line, compound A × partner, 72-hour proliferation
# [2] = CAL-51 cell line, compound A × partner, 72-hour proliferation
# [3] = CAL-85-1 cell line, compound A × partner, 72-hour proliferation
# [4] = CAL-120 cell line, compound A × partner, 72-hour proliferation
# [5] = CAL-148 cell line, compound A × partner, 72-hour proliferation
# [6] = CAMA-1 cell line, compound A × partner, 72-hour proliferation
# [7] = DU-4475 cell line, compound A × partner, 72-hour proliferation
# [8] = EVSA-T cell line, compound A × partner, 72-hour proliferation
# [9] = HCC38, compound A × partner, 72-hour proliferation
# [10] = HCC70, compound A × partner, 72-hour proliferation
# [11] = HCC1143 cell line, compound A × partner, 72-hour proliferation
# [12] = HCC1569, compound A × partner, 72-hour proliferation
# [13] = HCC1806, compound A × partner, 72-hour proliferation
# [14] = HCC1937, compound A × partner, 72-hour proliferation
# [15] = HCC1954, compound A × partner, 72-hour proliferation
# [16] = HCC2218, compound A × partner, 72-hour proliferation
# [17] = HDQ-P1, compound A × partner, 72-hour proliferation
# [18] = HMC-1-8, compound A × partner, 72-hour proliferation
# [19] = JIMT-1, compound A × partner, 72-hour proliferation
# [20] = KPL-1, compound A × partner, 72-hour proliferation
structure (smiles),measurement,setting,value
Cc1c(-c2ccc(N3CCc4cccc(C(=O)Nc5nc6ccccc6s5)c4C3)nc2C(=O)O)cnn1CC12CC3CC(CC(C3)C1)C2 [Compound A-1331852],Best CI,[1],0.01
same,Bliss Volume,[1],68.96
same,HSA volume,[1],70.29
same,Loewe Volume,[1],70.26
same,Synergy Score,[1],162.62
same,Best CI,[2],0.01
same,Bliss Volume,[2],56.43
same,HSA volume,[2],55.36
same,Loewe Volume,[2],56.58
same,Synergy Score,[2],118.96
same,Best CI,[3],0.01
same,Bliss Volume,[3],49.08
same,HSA volume,[3],54.69
same,Loewe Volume,[3],53.39
same,Synergy Score,[3],114.90
same,Best CI,[4],0.04
same,Bliss Volume,[4],28.08
same,HSA volume,[4],26.51
same,Loewe Volume,[4],28.14
same,Synergy Score,[4],55.20
same,Best CI,[5],0.01
same,Bliss Volume,[5],51.23
same,HSA volume,[5],55.15
same,Loewe Volume,[5],56.80
same,Synergy Score,[5],129.75
same,Best CI,[6],0.02
same,Bliss Volume,[6],41.48
same,HSA volume,[6],38.74
same,Loewe Volume,[6],40.35
same,Synergy Score,[6],89.71
same,Best CI,[7],0.41
same,Bliss Volume,[7],34.50
same,HSA volume,[7],31.29
same,Loewe Volume,[7],31.62
same,Synergy Score,[7],49.81
same,Best CI,[8],0.11
same,Bliss Volume,[8],31.72
same,HSA volume,[8],28.03
same,Loewe Volume,[8],29.10
same,Synergy Score,[8],63.11
same,Best CI,[9],0.03
same,Bliss Volume,[9],36.56
same,HSA volume,[9],31.80
same,Loewe Volume,[9],30.82
same,Synergy Score,[9],60.48
same,Best CI,[10],0.00
same,Bliss Volume,[10],73.73
same,HSA volume,[10],74.12
same,Loewe Volume,[10],74.78
same,Synergy Score,[10],173.58
same,Best CI,[11],0.00
same,Bliss Volume,[11],53.10
same,HSA volume,[11],51.70
same,Loewe Volume,[11],52.79
same,Synergy Score,[11],89.24
same,Best CI,[12],0.01
same,Bliss Volume,[12],43.44
same,HSA volume,[12],40.52
same,Loewe Volume,[12],40.04
same,Synergy Score,[12],86.99
same,Best CI,[13],0.00
same,Bliss Volume,[13],83.58
same,HSA volume,[13],85.67
same,Loewe Volume,[13],85.91
same,Synergy Score,[13],183.39
same,Best CI,[14],0.00
same,Bliss Volume,[14],69.83
same,HSA volume,[14],71.58
same,Loewe Volume,[14],71.06
same,Synergy Score,[14],157.43
same,Best CI,[15],0.01
same,Bliss Volume,[15],53.64
same,HSA volume,[15],55.54
same,Loewe Volume,[15],55.53
same,Synergy Score,[15],121.26
same,Best CI,[16],0.01
same,Bliss Volume,[16],47.29
same,HSA volume,[16],47.84
same,Loewe Volume,[16],46.72
same,Synergy Score,[16],99.88
same,Best CI,[17],0.01
same,Bliss Volume,[17],58.35
same,HSA volume,[17],61.13
same,Loewe Volume,[17],60.82
same,Synergy Score,[17],132.76
same,Best CI,[18],0.11
same,Bliss Volume,[18],21.81
same,HSA volume,[18],19.39
same,Loewe Volume,[18],20.77
same,Synergy Score,[18],39.01
same,Best CI,[19],0.01
same,Bliss Volume,[19],57.07
same,HSA volume,[19],57.74
same,Loewe Volume,[19],57.21
same,Synergy Score,[19],126.70
same,Best CI,[20],0.03
same,Bliss Volume,[20],26.84
same,HSA volume,[20],25.88
same,Loewe Volume,[20],26.65
same,Synergy Score,[20],36.44
CC1(C)CCC(CN2CCN(c3ccc(C(=O)NS(=O)(=O)c4ccc(NCC5CCOCC5)c([N+](=O)[O-])c4)c(Oc4cnc5[nH]ccc5c4)c3)CC2)=C(c2ccc(Cl)cc2)C1 [ABT-199],Best CI,72 h,1.23
same,Bliss Volume,72 h,−1.15
same,HSA volume,72 h,−2.69
same,Loewe Volume,72 h,−0.11
same,Synergy Score,72 h,3.31
same,Best CI,[1],0.62
same,Bliss Volume,[1],6.83
same,HSA volume,[1],5.47
same,Loewe Volume,[1],5.94
same,Synergy Score,[1],13.39
same,Best CI,[2],0.58
same,Bliss Volume,[2],0.44
same,HSA volume,[2],−2.62
same,Loewe Volume,[2],0.83
same,Synergy Score,[2],0.56
same,Best CI,[3],0.83
same,Bliss Volume,[3],−1.49
same,HSA volume,[3],−2.11
same,Loewe Volume,[3],−1.27
same,Synergy Score,[3],1.08
same,Best CI,[4],0.85
same,Bliss Volume,[4],3.85
same,HSA volume,[4],−1.21
same,Loewe Volume,[4],−0.16
same,Synergy Score,[4],0.62
same,Best CI,[5],0.47
same,Bliss Volume,[5],3.32
same,HSA volume,[5],−0.66
same,Loewe Volume,[5],3.11
same,Synergy Score,[5],2.74
same,Best CI,[6],0.38
same,Bliss Volume,[6],8.30
same,HSA volume,[6],4.83
same,Loewe Volume,[6],8.10
same,Best CI,[7],1.15
same,Bliss Volume,[7],10.43
same,HSA volume,[7],8.46
same,Loewe Volume,[7],10.37
same,Synergy Score,[7],10.64
same,Best CI,[8],1.07
same,Bliss Volume,[8],1.29
same,HSA volume,[8],−0.86
same,Loewe Volume,[8],0.99
same,Synergy Score,[8],4.67
same,Best CI,[9],0.77
same,Bliss Volume,[9],−3.14
same,HSA volume,[9],−0.71
same,Loewe Volume,[9],0.50
same,Synergy Score,[9],5.65
same,Best CI,[10],0.43
same,Bliss Volume,[10],15.68
same,HSA volume,[10],14.46
same,Loewe Volume,[10],15.44
same,Synergy Score,[10],28.95
same,Best CI,[11],0.82
same,Bliss Volume,[11],2.43
same,HSA volume,[11],−2.65
same,Loewe Volume,[11],−1.50
same,Synergy Score,[11],3.01
same,Best CI,[12],0.51
same,Bliss Volume,[12],15.86
same,HSA volume,[12],14.50
same,Loewe Volume,[12],16.04
same,Synergy Score,[12],14.35
same,Best CI,[13],0.83
same,Bliss Volume,[13],3.80
same,HSA volume,[13],4.70
same,Loewe Volume,[13],5.23
same,Synergy Score,[13],6.31
same,Best CI,[14],0.22
same,Bliss Volume,[14],8.42
same,HSA volume,[14],2.68
same,Loewe Volume,[14],4.59
same,Synergy Score,[14],1.43
same,Best CI,[15],0.60
same,Bliss Volume,[15],12.55
same,HSA volume,[15],10.72
same,Loewe Volume,[15],12.18
same,Synergy Score,[15],17.16
same,Best CI,[16],0.43
same,Bliss Volume,[16],7.82
same,HSA volume,[16],8.19
same,Loewe Volume,[16],7.59
same,Synergy Score,[16],15.06
same,Best CI,[17],0.04
same,Bliss Volume,[17],1.77
same,HSA volume,[17],0.38
same,Loewe Volume,[17],1.74
same,Synergy Score,[17],0.96
same,Best CI,[18],0.90
same,Bliss Volume,[18],6.70
same,HSA volume,[18],5.15
same,Loewe Volume,[18],6.08
same,Synergy Score,[18],9.51
same,Best CI,[19],0.14
same,Bliss Volume,[19],−1.41
same,HSA volume,[19],−2.60
same,Loewe Volume,[19],−1.93
same,Synergy Score,[19],0.53
same,Synergy Score,"MCF7 cells, Compound A × partner agent, 72-hour proliferation",1.43
